Test results published in ChEMBL document CHEMBL5260832, “Hepatoprotective natural triterpenoids” (Eur J Med Chem, 2018).

Columns and labels:
Hepatocyte [1] = assay: Protection against CCL4-induced rat hepatocyte toxicity assessed as reduction in ALT level at 90 uM relative to control; type: functional; design: scale not given: the % may be the effect or the level left
Hepatocyte [2] = assay: Hepatoprotective activity against CCl4/GaIN-induced cytotoxicity in rat hepatocytes assessed as decrease in GPT level at 1.0 ug/mL relative to control; type: functional; design: scale not given: the % may be the effect or the level left; conditions: dose 1 µg/ml
Huh-7 [3] = assay: Hepatoprotective activity in human Huh-7 cells assessed as reduction in AST level; type: functional; design: scale not given: the % may be the effect or the level left
L02 [4] = assay: Protection against D-GalN-induced toxicity in L02 cells […] assessed as reduction in cell growth relative to control; type: functional, Homo sapiens; design: scale not given: the % may be the effect or the level left
L02 [5] = assay: Protection against D-GalN-induced toxicity in L02 cells […] assessed as reduction in cell growth at 6.25 microg/ml relative to control; type: functional, Homo sapiens; design: scale not given: the % may be the effect or the level left; conditions: dose 6.25 µg/ml
L02 [6] = assay: Protection against D-GalN-induced toxicity in L02 cells […] assessed as reduction in cell growth at 3.13 microg/ml relative to control; type: functional, Homo sapiens; design: scale not given: the % may be the effect or the level left; conditions: dose 3.13 µg/ml
Mus musculus [7] = species: Mus musculus; assay: Protection against D-GaIN/TNFalpha induced cell death in mouse liver parenchymal cells assessed as reduction in GPT level measured after 2 hrs; type: functional, cell-based
Mus musculus [8] = species: Mus musculus; assay: Hepatoprotective activity in CCl4-induced mouse assessed as change in SGPT level (reference value: 6.9 mmol/L); type: functional
Huh-7 [9] = assay: Protection against CCl4-induced cell damage in human Huh-7 cells assessed as reduction in ALT level at […] (reference value: 40.2 U/ml); type: functional; design: dose or concentration left out as unconfirmed
Mus musculus [10] = species: Mus musculus; assay: Hepatoprotective activity in mouse liver homogenate assessed as inhibition of iron/ascorbate lipid peroxidation at 5.0 mg/mL relative to control; type: functional; design: scale not given: the % may be the effect or the level left
Mus musculus [11] = species: Mus musculus; assay: Hepatoprotective activity in mouse liver homogenate assessed as inhibition of iron/ascorbate lipid peroxidation at 0.1 mg/mL relative to control; type: functional; design: scale not given: the % may be the effect or the level left

SMILES: C[C@@H]1O[C@@H](O[C@H]2[C@H](O[C@H]3CC[C@]4(C)[C@H]5CC=C6[C@@H]7CC(C)(C)CC[C@]7(C(=O)O[C@@H]7O[C@H](CO)[C@@H](O)[C@H](O)[C@H]7O[C@@H]7O[C@H](CO)[C@@H](O)[C@H](O)[C@H]7O)[C@H](O)C[C@@]6(C)[C@]5(C)CC[C@H]4C3(C)C)O[C@H](CO)[C@@H](O)[C@@H]2O)[C@H](O)[C@H](O)[C@H]1O
- Activity (Hepatocyte [1]): 79%

SMILES: CC1(C)CC[C@]2(C(=O)O[C@@H]3O[C@H](CO)[C@@H](O)[C@H](O)[C@H]3O)CC[C@]3(C)C(=CC[C@@H]4[C@@]5(C)CC[C@H](O[C@@H]6O[C@H](C(=O)O)[C@@H](O)[C@H](O)[C@H]6O[C@@H]6O[C@H](CO)[C@@H](O)[C@H](O)[C@H]6O)C(C)(C)[C@@H]5CC[C@]43C)[C@@H]2C1 [GINSENOSIDE R0]
- Activity (Hepatocyte [2]): 42%

SMILES: CC1(C)CC[C@]2(C(=O)O[C@@H]3O[C@H](CO)[C@@H](O)[C@H](O)[C@H]3O)CC[C@]3(C)C(=CC[C@@H]4[C@@]5(C)CC[C@H](O[C@@H]6O[C@H](C(=O)O)[C@@H](O)[C@H](O)[C@H]6O[C@@H]6OC[C@H](O)[C@H](O)[C@H]6O)C(C)(C)[C@@H]5CC[C@]43C)[C@@H]2C1
- Activity (Hepatocyte [2]): 28%

SMILES: C[C@@H]1CC[C@]2(C(=O)O)CC[C@]3(C)C(=CC[C@@H]4[C@@]5(C)C[C@@H](O)[C@@H](O)C(C)(C)[C@@H]5CC[C@]43C)[C@@H]2[C@]1(C)O [EUSCAPHIC ACID]
- Activity (Huh-7 [3]): 48.8%

SMILES: CC(C)(O[C@@H]1O[C@H](CO)[C@@H](O)[C@H](O)[C@H]1O)[C@@H]1CC[C@@H]([C@H]2[C@H](O)C[C@]3(C)[C@@H]2CC[C@@H]2[C@@]4(C)CC[C@H](O[C@@H]5O[C@H](CO)[C@@H](O)[C@H](O)[C@H]5O[C@@H]5O[C@H](CO)[C@@H](O)[C@H](O)[C@H]5O)C(C)(C)[C@@H]4CC[C@]23C)O1
- Activity (L02 [4]): 46.7%
- Activity (L02 [5]): 22.8%
- Activity (L02 [6]): 22.8%

SMILES: CC(=O)OC[C@H]1O[C@@H](O[C@H]2C[C@]3(C)[C@H](C[C@@H](O)[C@@H]4[C@@H]([C@]5(C)CC[C@@H](C(C)(C)O)O5)CC[C@]43C)[C@@]3(C)CC[C@H](O)C(C)(C)[C@H]23)[C@H](O[C@@H]2O[C@@H](C)[C@H](O)[C@@H](O)[C@H]2O)[C@@H](O)[C@@H]1O
- IC50 (Mus musculus [7]): 47 µM

SMILES: CC1(C)CC[C@]2(C(=O)O)CC[C@]3(C)C(=CC[C@@H]4[C@@]5(C)CCC(OC(=O)/C=C/c6ccc(O)c(O)c6)C(C)(C)[C@@H]5CC[C@]43C)[C@@H]2C1 (stereo partly drawn)
- Activity (Mus musculus [8]): 3.53 mmol/L

SMILES: C[C@@H]1CC[C@]2(C(=O)O[C@@H]3O[C@H](CO)[C@@H](O)[C@H](O)[C@H]3O)CC[C@]3(C)C(=CC[C@@H]4[C@@]5(C)C[C@H](O)[C@H](O)C(C)(C)[C@@H]5CC[C@]43C)[C@@H]2[C@]1(C)O
- Activity (Huh-7 [9]): 15.4 U/ml

SMILES: CC1(C)CC[C@]2(C(=O)O)CC[C@]3(C)C(=CC[C@@H]4[C@@]5(C)CC[C@H](O)C(C)(C)[C@@H]5CC[C@]43C)[C@@H]2C1 [OLEANOLIC_ACID]
- Activity (Mus musculus [10]): 38.8%
- Activity (Mus musculus [11]): 13.7%
- Activity (Mus musculus [8]): 3.64 mmol/L
